Measurements published in PMC6420870 (Neuropharmacology, 2019).

Experiments:
Format in all cases: cell-based
[1] = target: T1, rat mGlu5 (HEK293A-rat mGlu5-low) (Rattus norvegicus, UniProt P31424); assay: IP1 accumulation
[2] = target: T1, rat mGlu5 (HEK293A-rat mGlu5-low); assay: [3H]methoxy-PEPy inhibition binding, intact adherent cells
[3] = target: T1, rat mGlu5 (HEK293A-rat mGlu5-low); assay: radioligand binding, intact adherent cells; settings: labelled compound, ~2 nM, RT, 1 h, pH 7.4; allosteric site

T1 sequence (P31424 21-1203): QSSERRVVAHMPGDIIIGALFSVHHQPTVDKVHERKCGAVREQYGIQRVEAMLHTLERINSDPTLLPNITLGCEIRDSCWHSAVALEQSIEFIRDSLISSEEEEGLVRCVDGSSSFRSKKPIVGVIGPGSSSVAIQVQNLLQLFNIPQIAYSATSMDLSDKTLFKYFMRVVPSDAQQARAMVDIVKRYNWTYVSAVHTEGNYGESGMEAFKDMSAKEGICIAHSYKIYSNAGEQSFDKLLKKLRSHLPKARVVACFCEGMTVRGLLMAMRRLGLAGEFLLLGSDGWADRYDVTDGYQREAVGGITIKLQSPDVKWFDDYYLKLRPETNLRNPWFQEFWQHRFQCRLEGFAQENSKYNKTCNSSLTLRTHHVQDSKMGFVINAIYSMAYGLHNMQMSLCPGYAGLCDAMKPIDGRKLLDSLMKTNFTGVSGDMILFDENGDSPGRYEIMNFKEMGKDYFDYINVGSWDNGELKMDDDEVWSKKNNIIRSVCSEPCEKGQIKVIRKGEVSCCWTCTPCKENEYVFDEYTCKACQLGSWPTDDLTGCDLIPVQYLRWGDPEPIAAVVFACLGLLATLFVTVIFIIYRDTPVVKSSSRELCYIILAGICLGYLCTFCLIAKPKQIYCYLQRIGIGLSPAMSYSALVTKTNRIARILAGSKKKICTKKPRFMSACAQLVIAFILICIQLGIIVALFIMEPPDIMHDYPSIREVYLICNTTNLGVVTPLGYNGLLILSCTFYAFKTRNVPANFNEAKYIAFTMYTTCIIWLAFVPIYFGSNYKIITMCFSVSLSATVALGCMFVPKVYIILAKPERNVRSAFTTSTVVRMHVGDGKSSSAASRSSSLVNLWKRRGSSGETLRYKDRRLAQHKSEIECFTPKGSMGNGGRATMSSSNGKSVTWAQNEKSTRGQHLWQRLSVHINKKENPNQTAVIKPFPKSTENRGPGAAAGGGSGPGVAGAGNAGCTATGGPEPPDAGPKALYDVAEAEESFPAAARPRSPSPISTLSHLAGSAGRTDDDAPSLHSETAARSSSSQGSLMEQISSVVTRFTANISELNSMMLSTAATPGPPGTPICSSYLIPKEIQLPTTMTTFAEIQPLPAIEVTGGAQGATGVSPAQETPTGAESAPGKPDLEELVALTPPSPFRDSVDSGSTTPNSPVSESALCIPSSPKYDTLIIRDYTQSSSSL

Compound	IC50 [1] [nM]	Ki [2] [nM]	radioligand binding, intact adherent cells [3]
Fc1ccc2nc(CCC#Cc3ccccn3)cn2c1 [dipraglurant, 6-fluoro-2-[4-(2-pyridinyl)-3-butyn-1-yl]-Imidazo[1,2-a]pyridine]	43.7	49	
COc1cncc(C#Cc2ccccn2)c1 [[^3H]methoxy-PEPy]			inhibition of [^3H]methoxy-PEPy binding was determined in HEK293A-rat mGlu5-low cells
COc1cccc(C#Cc2ccc(C)cn2)c1 [M-5MPEP, 2-[2-(3-methoxyphenyl)ethynyl]-5-methylpyridine]	295	74.1	
CN1CC(=O)N=C1NC(=O)Nc1cccc(Cl)c1 [fenobam, 1-(3-chlorophenyl)-3-[(2e)-1-methyl-4-oxoimidazolidin-2-ylidene]urea]	148	70.8	

Second part, led by results:

IC50 [1] [nM]	Ki [2] [nM]	Compound	radioligand binding, intact adherent cells [3]
105	55	N#Cc1cnc(Nc2nc3ccccc3o2)nc1-c1ccc(F)cc1 [VU0366058, 2-(1,3-benzoxazol-2-ylamino)-4-(4-fluorophenyl)pyrimidine-5-carbonitrile]	
331	115	N#Cc1cc(F)cc(C(=O)Nc2cccc(Cl)c2F)c1 [VU0366248, N-(3-chloro-2-fluorophenyl)-3-cyano-5-fluorobenzamide]	
